Results on five molecules are retold here after patent US7153676B1, “Transacylases of the paclitaxel biosynthetic pathway” (priority 1999, dated 2006).

As usually defined, the Km is the substrate concentration at which the rate is half of its maximum.

Experiment [1] addresses T1, 10-deacetylbaccatin III-10-O-acetyl transferase (TAX6) (Taxus cuspidata, UniProt Q9M6E2).
T1 construct: to amplify the putative full-length acetyl transferase gene and incorporate NdeI and XbaI restriction sites; made in house; host or cells: E. coli JM109 (pCWori+)
T1 sequence (Q9M6E2 1-440): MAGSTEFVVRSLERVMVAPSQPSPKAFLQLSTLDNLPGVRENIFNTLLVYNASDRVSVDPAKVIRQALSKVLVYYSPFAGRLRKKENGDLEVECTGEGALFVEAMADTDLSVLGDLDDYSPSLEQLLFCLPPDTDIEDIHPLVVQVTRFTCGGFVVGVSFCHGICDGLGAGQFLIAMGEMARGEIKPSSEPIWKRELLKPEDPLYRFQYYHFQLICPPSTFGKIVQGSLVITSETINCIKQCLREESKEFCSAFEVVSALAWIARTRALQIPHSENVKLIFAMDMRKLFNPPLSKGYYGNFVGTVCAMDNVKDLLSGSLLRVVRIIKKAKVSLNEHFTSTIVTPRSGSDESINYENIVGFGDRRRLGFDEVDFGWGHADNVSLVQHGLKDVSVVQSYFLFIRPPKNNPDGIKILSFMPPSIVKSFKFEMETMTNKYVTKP
The experiment is classed as biochemical. Particulars: for conversion/acetylation of substrate by TAX6: 10-hydroxyl of 10-deacetylbaccatin III, 5α-hydroxyl of taxadienol. As to the method: For the enzyme preparation, E. coli cells transformed with the pCWori+ vector harboring the putative DBAT gene were grown overnight at 37° C. in 5 mL Luria-Bertani medium supplemented with ampicillin, and 1 mL of this inoculum was added to and grown in 100 mL Terrific Broth culture medium (6 g bacto-tryptone, Difco Laboratories, Spark, Md., 12 g yeast extract, EM Science, Cherryhill, N.J., and 2 mL gycerol in 500 mL water) supplemented with 1 mM IPTG, 1 mM thiamine HCl and 50 μg ampicillin/mL. After 24 hours, the bacteria were harvested by centrifugation, resuspended in 20 mL of assay buffer (25 mM Mopso, pH 7.4) and then disrupted by sonication at 0–4° C. The resulting homogenate was centrifuged at 15,000 g to remove debris, and a 1 mL aliquot of the supernatant was incubated with 10-deacetylbaccatin III (400 μM) and [2-^3H]acetyl coenzyme A (0.45μCi, 400 μM) for 1 hour at 31° C. The reaction mixture was extracted with ether and the solvent concentrated in vacuo. The crude product (pooled from five such assays) was purified by silica gel thin-layer chromatography (TLC; 70:30 ethyl acetate:hexane).
The activity of TAX6 (SEQ ID NO: 45) was assayed under standard conditions described in Walker et al., Arch. Biochem. Biophys.

For experiment [2], the system named is acetyl CoA:taxadien-5α-ol O-acetyl transacylase. Particulars: cited from earlier work; for acetylation by the enzyme (substrate selectivity): more advanced paclitaxel precursors; for Km: cosubstrate of the taxadienol acetyl transacylase.

“And” between values parts separate entries of the source, which are not always exact repeats. Equal values may be shown once.

On to `CC(=O)O[C@@]12CO[C@@H]1C[C@H](O)[C@@]1(C)C(=O)[C@H](O)C3=C(C)[C@@H](O)C[C@@](O)([C@@H](OC(=O)c4ccccc4)[C@H]21)C3(C)C` [10-deacetylbaccatin III], for which, in experiment [1], the Km turned out to be 10 µM and the “conversion/acetylation of substrate by TAX6” value was “catalyze the conversion”. The “acetylation of the 1β-, 7β-, or 13α-hydroxyl groups by TAX6” value in experiment [1] (regioselectivity) was “does not acetylate”. Further, the “acetylation by the enzyme (substrate selectivity)” value in experiment [2] is recorded as “does not acetylate”.

On to `CC(C)(COP(=O)(O)OP(=O)(O)OC[C@H]1O[C@@H](n2cnc3c(N)ncnc32)[C@H](O)[C@@H]1OP(=O)(O)O)[C@@H](O)C(=O)NCCC(=O)NCCS` [Co-enzyme A], for which the “inhibition of the enzyme” value in experiment [2] is “only weakly inhibited”.

With `CC(=O)SCCNC(=O)CCNC(=O)[C@H](O)C(C)(C)COP(=O)(O)OP(=O)(O)OC[C@H]1O[C@@H](n2cnc3c(N)ncnc32)[C@H](O)[C@@H]1OP(=O)(O)O` [acetyl CoA], in experiment [2], the Km is 5.5 µM and 6 µM.

On to `CC(=O)O[C@H]1C(=O)[C@@]2(C)[C@H]([C@H](OC(=O)c3ccccc3)[C@]3(O)C[C@H](O)C(C)=C1C3(C)C)[C@]1(OC(C)=O)CO[C@@H]1C[C@@H]2O` [baccatin III], for which the “acetylation by the enzyme (substrate selectivity)” value in experiment [2] was “does not acetylate”.

For the molecule `C=C1[C@H]2C[C@@H]3CCC(C)=C(CC[C@]2(C)CC[C@@H]1O)C3(C)C` [taxadienol, taxa-4(20),11(12)-dien-5α-ol], the “conversion/acetylation of substrate by TAX6” value in experiment [1] is on record as “nor does it acetylate”. In addition, in experiment [2], the Km is 4.2 µM and 4 µM.
